# ChEMBL document CHEMBL4837230, “Thiophene-2-carboxamide derivatives of anthraquinone: A new potent antitumor chemotype” (Eur J Med Chem, 2021)
# pIC50: −log10 of the molar value. Calls of active or inactive are those of the source. No cut-off for these calls is given here.
# Tests used:
# [1] = Cytotoxicity in human DND41 cells assessed as reduction in cell viability incubated for 72 hrs by MTT assay; format: functional, cell-based; details: DND41, 72 h
# NCI-H460 = assay: Cytotoxicity in human NCI-H460 cells assessed as reduction in cell viability incubated for 72 hrs by MTT assay; format: functional, cell-based; details: NCI-H460, 72 h
# K562 [2] = assay: Induction of cell cycle arrest in human K562 cells assessed as increase in accumulation at sub-G1 phase at 0.5 uM after 48 hrs by propidium iodide staining based flow cytometric analysis (reference value: 8.4%); format: functional
# K562 [3] = assay: Induction of cell cycle arrest in human K562 cells assessed as increase in accumulation at sub-G1 phase at 0.5 uM after 24 hrs by propidium iodide staining based flow cytometric analysis (reference value: 8.4%); format: functional
# HCT-116 [4] = assay: Cytotoxicity in human HCT-116 cells assessed as reduction in cell viability incubated for 72 hrs by MTT assay; format: functional, cell-based; details: HCT-116, 72 h
# HCT-116 [5] = assay: Cytotoxicity against p53 knock out human HCT-116 cells assessed as reduction in cell viability incubated for 72 hrs by MTT assay; format: functional, cell-based; details: HCT-116, 72 h
# U-937 = assay: Cytotoxicity in human U-937 cells assessed as reduction in cell viability incubated for 72 hrs by MTT assay; format: functional, cell-based; details: U-937, 72 h
# [6] = Cytotoxicity in human K562/4 cells assessed as reduction in cell viability incubated for 72 hrs by MTT assay; format: functional, cell-based; details: K562/4, 72 h
# Fibroblast = assay: Cytotoxicity in human Fibroblast cells assessed as reduction in cell viability incubated for 72 hrs by MTT assay; format: functional, cell-based
# [7] = Resistance index, ratio of IC50 for cytotoxicity against human K562/4 cells to IC50 for cytotoxicity against human K562 cells; format: functional
# K562 [8] = assay: Cytotoxicity in human K562 cells assessed as reduction in cell viability at 2.5 uM incubated for 72 hrs by propidium iodide staining based flow cytometric analysis; format: functional
# K562 [9] = assay: Cytotoxicity in human K562 cells assessed as reduction in cell viability at 2.5 uM incubated with compound for 30 mins followed by cell washing and measured after 72 hrs by propidium iodide staining based flow cytometric analysis; format: functional; details: 0.5 h
# K562 [10] = assay: Cytotoxicity in human K562 cells assessed as reduction in cell viability at 1 uM incubated with compound for 60 mins followed by cell washing and measured after 72 hrs by propidium iodide staining based flow cytometric analysis; format: functional
# K562 [11] = assay: Cytotoxicity in human K562 cells assessed as reduction in cell viability at 2.5 uM incubated with compound for 120 mins followed by cell washing and measured after 72 hrs by propidium iodide staining based flow cytometric analysis; format: functional; details: 2 h
# DNA = assay: Binding affinity to pBR322 DNA (unknown origin) at 20 uM after 30 mins by electrophoretic mobility shift assay; format: nucleic-acid assay
# K562 [12] = assay: Induction of ROS generation in human K562 cells at 2.5 uM after 15 to 75 mins by Deep Red dye based flow cytometry method; format: functional, cell-based; details: time 15-75 min
# K562 [13] = assay: Induction of cell cycle arrest in human K562 cells assessed as increase in accumulation at S phase at 2.5 uM by flow cytometric analysis (reference value: 11.2%); format: functional
# K562 [14] = assay: Induction of cell cycle arrest in human K562 cells assessed as increase in accumulation at G2/M phase at 2.5 uM after 2 hrs by flow cytometric analysis (reference value: 15.2%); format: functional
# K562 [15] = assay: Induction of cell cycle arrest in human K562 cells assessed as increase in accumulation at sub-G1 phase at 2.5 uM after 4 hrs by flow cytometric analysis (reference value: 14%); format: functional
# K562 [16] = assay: Induction of cell cycle arrest in human K562 cells assessed as increase in accumulation at G0/G1 phase at 2.5 uM after 4 hrs by flow cytometric analysis (reference value: 19.2%); format: functional
# K562 [17] = assay: Induction of cell cycle arrest in human K562 cells assessed as increase in accumulation at G2/M phase at 2.5 uM after 6 hrs by flow cytometric analysis (reference value: 26.8%); format: functional
# K562 [18] = assay: Induction of mitochondrial membrane potential loss in human K562 cells at 2.5 uM after 3 hrs by Mitotracker Red dye based flow cytometric analysis(reference value: 7.8 %); format: functional
# K562 [19] = assay: Induction of mitochondrial membrane potential loss in human K562 cells at 2.5 uM after 6 hrs by Mitotracker Red dye based flow cytometric analysis(reference value: 6.4 %); format: functional
# [20] = Drug localization in cytoplasm of mouse NIH3T3 cells at 1 uM incubated for 5 to 60 mins by laser confocal microscopy; format: ADME, cell-based; details: nih3t3, 1 µM, time 5-60 min
# K562 [21] = assay: Induction of apoptosis in human K562 cells assessed as viable cells after 3 hrs by Annexin V-[…]/PI double staining based flow cytometric analysis (reference value: 91%); format: functional
# K562 [22] = assay: Induction of apoptosis in human K562 cells assessed as early apoptotic cells after 3 hrs by Annexin V-APC/PI double staining based flow cytometric analysis (reference value: 0.1%); format: functional
# K562 [23] = assay: Induction of apoptosis in human K562 cells assessed as late apoptotic cells after 3 hrs by Annexin V-APC/PI double staining based flow cytometric analysis (reference value: 2.6%); format: functional
# K562 [24] = assay: Induction of apoptosis in human K562 cells assessed as necrotic cells after 3 hrs by Annexin V-APC/PI double staining based flow cytometric analysis (reference value: 6.3%); format: functional
# K562 [25] = assay: Induction of apoptosis in human K562 cells assessed as viable cells after 24 hrs by Annexin V-APC/PI double staining based flow cytometric analysis (reference value: 91%); format: functional
# K562 [26] = assay: Induction of apoptosis in human K562 cells assessed as early apoptotic cells after 24 hrs by Annexin V-APC/PI double staining based flow cytometric analysis (reference value: 0.1%); format: functional
# K562 [27] = assay: Induction of apoptosis in human K562 cells assessed as late apoptotic cells after 24 hrs by Annexin V-APC/PI double staining based flow cytometric analysis (reference value: 2.6%); format: functional
# K562 [28] = assay: Induction of apoptosis in human K562 cells assessed as necrotic cells after 24 hrs by Annexin V-APC/PI double staining based flow cytometric analysis (reference value: 6.3%); format: functional
# K562 [29] = assay: Induction of apoptosis in human K562 cells assessed as activation of casapse-9 cleavage at 2.5 uM measured after 6 hrs by Western blot analysis; format: functional, cell-based
# K562 [30] = assay: Induction of apoptosis in human K562 cells assessed as activation of PARP cleavage at 2.5 uM measured after 6 hrs by Western blot analysis; format: functional, cell-based
# [31] = Drug localization in nuclei of mouse NIH3T3 cells at 1 uM incubated for 5 to 60 mins by Hoechst 33258 staining based laser confocal microscopy; format: ADME, cell-based; details: nih3t3, 1 µM, time 5-60 min
compound,measurement,setting,value
N[C@H]1CCN(C(=O)c2cc3c(O)c4c(c(O)c3s2)C(=O)c2ccccc2C4=O)C1,pIC50,[1],6.40
same,pIC50,NCI-H460,6.40
same,Activity,K562 [2],33.2%
same,Activity,K562 [3],18.7%
same,pIC50,HCT-116 [4],6.30
same,pIC50,HCT-116 [5],6.30
same,pIC50,U-937,6.70
same,pIC50,[6],6.40
same,pIC50,Fibroblast,5.85
same,Ratio,[7],1.3
same,Activity,K562 [8],94.8%
same,Activity,K562 [9],67.4%
same,Activity,K562 [10],6.3%
same,Activity,K562 [11],76.5%
same,Activity,DNA,inactive
same,Activity,K562 [12],inactive
same,Activity,K562 [13],12%
same,Activity,K562 [14],15.9%
same,Activity,K562 [15],14.5%
same,Activity,K562 [16],28.1%
same,Activity,K562 [17],13.9%
same,Activity,K562 [18],19.8%
same,Activity,K562 [19],33.3%
same,Drug uptake,[20],Active
same,Activity,K562 [21],47.9%
same,Activity,K562 [22],0.6%
same,Activity,K562 [23],13.2%
same,Activity,K562 [24],38.2%
same,Activity,K562 [25],1.8%
same,Activity,K562 [26],0.1%
same,Activity,K562 [27],49.3%
same,Activity,K562 [28],48.8%
same,Activity,K562 [29],Active
same,Activity,K562 [30],Active
same,Drug uptake,[31],Not Active
